In US11661419B2, “Benzimidazole derivative compounds and uses thereof” (Pfizer Inc., priority 2019, dated 2023):

What was measured:
[1] = target: Tropomyosin receptor kinase A (TRKA, NTRK1) (Homo sapiens (Human), UniProt P04629); experiment: TRKA (NTRK1) enzyme Z'-LYTE assay; format: biochemical; conditions: arithmetic mean of count n; test compound 1 uM, ATP 1 mM
Procedure: Tropomyosin Receptor Kinase a (TRKA) Activity, % Inhibition
TRKA, also known as neurotrophic tyrosine kinase receptor type 1 (NTKR1) activity was determined by measuring the effect of a test compound on the activity against the NTRK1 enzyme using the ThermoFisher Z'-LYTE Assay fluorescence-based coupled enzyme format (www.thermofisher.com/selectscreen). […] The resulting effect value for the tested compound was compared to the assay controls to determine the % inhibition (%).

[2] = tested on: IL-2 in activated CD4+ human T-cells; experiment: IL-2 inhibition in supernatants from activated CD4+ human T-cells (cisbio HTRF); format: cell-based; conditions: T-cell; geometric mean of count n; CD3/CD28-expanded human CD4+ T cells stimulated with ImmunoCult, 20 to 24 hrs
Procedure: IL-2-Inhibition Activity, IC50 (uM)
IL-2 inhibition activity in supernatants from activated CD4+ human T-cells was determined by measuring the effect of a test compound on the activity using the cisbio HTRF™ technology.
Human CD4+ T cells were activated with CD3/CD28 for 3 days and expanded for an additional 4-6 days (7 to 9 days total). On day 0, frozen CD4+ T cells were thawed, treated with CD3/CD28 Dynabeads, and incubated at 37° C./5% CO2. On day 3, the beads were removed, and the cells were diluted to 5×10^5 cells/cm^2, placed in G-Rex10 flask, and incubated at 37° C./5% CO2. On day 7 to day 9 the cells were removed from the G-Rex flasks, counted and diluted back to 1×10^6 cells/ml in standard tissue culture flask.
The expanded CD4+ T-cells were centrifuged at 300×g for 10 minutes and resuspended to 0.5 million cells per ml (30,000 cells/well). 60 μl of CD4+ T cells were added per well to a 384 well plate containing 0.1 μL of varying concentrations of test compound in DMSO. The plates were incubated for 15 min at 37° C./5% CO2. 20 μl of diluted ImmunoCult™ ([…] Technologies, 1:12.5 in T cell assay media) were added to all wells of the plate (1:50 final assay concentration). The plates were incubated for an additional 20 to 24 hrs at 37° C./5% CO2. The plates were centrifuged at 300×g for 10 minutes. 16 μL of supernatant was removed and combined with 4 μl of IL-2 HTRF Abs. (cisbio kit). Plates were incubated for 3 hours at RT and read with an EnVision plate reader at 665 nm and 615 nm wavelengths.

Tropomyosin receptor kinase A (TRKA, NTRK1), sequence (P04629 33-796): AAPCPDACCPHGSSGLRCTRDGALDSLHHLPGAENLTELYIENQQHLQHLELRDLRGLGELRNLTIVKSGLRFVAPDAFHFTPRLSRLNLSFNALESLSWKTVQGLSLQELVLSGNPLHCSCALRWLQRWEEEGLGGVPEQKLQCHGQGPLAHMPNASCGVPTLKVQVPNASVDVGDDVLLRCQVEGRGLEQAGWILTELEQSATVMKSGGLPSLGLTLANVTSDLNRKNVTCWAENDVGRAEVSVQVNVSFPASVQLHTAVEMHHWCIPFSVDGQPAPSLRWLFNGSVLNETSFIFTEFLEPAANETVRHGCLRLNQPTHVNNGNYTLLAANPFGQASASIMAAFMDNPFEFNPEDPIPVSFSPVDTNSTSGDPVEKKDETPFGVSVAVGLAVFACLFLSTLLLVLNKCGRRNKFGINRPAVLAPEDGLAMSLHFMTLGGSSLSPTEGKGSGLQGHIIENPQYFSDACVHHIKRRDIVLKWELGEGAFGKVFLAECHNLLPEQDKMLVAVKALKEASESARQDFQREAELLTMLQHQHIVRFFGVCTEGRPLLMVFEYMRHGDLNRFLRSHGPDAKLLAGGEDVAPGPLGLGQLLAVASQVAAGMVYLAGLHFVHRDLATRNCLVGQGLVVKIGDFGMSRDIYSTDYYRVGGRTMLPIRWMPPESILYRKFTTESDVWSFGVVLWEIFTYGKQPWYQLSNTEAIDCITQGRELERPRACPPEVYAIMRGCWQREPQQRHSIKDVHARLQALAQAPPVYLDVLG

| Structure (SMILES) | inhibition at 1 µM [1] [%] | IC50 [2] [nM] |
| --- | --- | --- |
| CCN(C(=O)[C@H](C)N1CCOCC1)c1cc2nc(-c3n[nH]c4c3C[C@@H]3C[C@]3(C)C4)[nH]c2cc1C [Example 6, (S)—N-ethyl-N-(6-methyl-2-((4aS,5aR)-5a-methyl-1,4,4a,5,5a,6-hexahydrocyclopropa[f]indazol-3-yl)-1H-benzo[d]imidazol-5-yl)-2-morpholinopropanamide] | 102 | 101 |
| CN(C(=O)CC1CCOCC1)c1ccc2[nH]c(-c3n[nH]c4c3C[C@@H]3C[C@]3(C)C4)nc2c1 [Example 10, N-methyl-N-(2-((4aS,5aR)-5a-methyl-1,4,4a,5,5a,6-hexahydrocyclopropa[f]indazol-3-yl)-1H-benzo[d]imidazol-5-yl)-2-(tetrahydro-2H-pyran-4-yl)acetamide] | 104 | 67 |
| C[C@@H](C(=O)N(C)c1cc(F)c2[nH]c(-c3n[nH]c4c3C[C@@H]3C[C@]3(C)C4)nc2c1)C1CCOCC1 [Example 12, (R)—N-(7-fluoro-2-((4aS,5aR)-5a-methyl-1,4,4a,5,5a,6-hexahydrocyclopropa[f]indazol-3-yl)-1H-benzo[d]imidazol-5-yl)-N-methyl-2-(tetrahydro-2H-pyran-4-yl)propanamide] | 94 | 25 |
| C[C@@H](C(=O)N(C)c1ccc2[nH]c(-c3n[nH]c4c3C[C@@H]3C(F)(F)[C@]3(C)C4)nc2c1)N1CCOCC1 [Example 13, (S)—N-(2-((4aS,5aR)-5,5-difluoro-5a-methyl-1,4,4a,5,5a,6-hexahydrocyclopropa[f]indazol-3-yl)-1H-benzo[d]imidazol-5-yl)-N-methyl-2-morpholinopropanamide] | 99 | 3 |
| C[C@@H](C(=O)N(C)c1ccc2[nH]c(-c3n[nH]c4c3C[C@@H]3C[C@]3(C)C4)nc2c1)N1CCOCC1 [Example 14, (S)—N-methyl-N-(2-((4aS,5aR)-5a-methyl-1,4,4a,5,5a,6-hexahydrocyclopropa[f]indazol-3-yl)-1H-benzo[d]imidazol-5-yl)-2-morpholinopropanamide] | 92 | 42 |
| C[C@@H](C(=O)N(C)c1cc(F)c2[nH]c(-c3n[nH]c4c3C[C@@H]3C[C@]3(C)C4)nc2c1)N1CCOCC1 [Example 15, (S)—N-(7-fluoro-2-((4aS,5aR)-5a-methyl-1,4,4a,5,5a,6-hexahydrocyclopropa[f]indazol-3-yl)-1H-benzo[d]imidazol-5-yl)-N-methyl-2-morpholinopropanamide] | 107 | 42 |
| CCN(C(=O)[C@H](C)N1CCOCC1)c1cc(F)c2[nH]c(-c3n[nH]c4c3C[C@@H]3C[C@]3(C)C4)nc2c1 [Example 16, (S)—N-ethyl-N-(7-fluoro-2-((4aS,5aR)-5a-methyl-1,4,4a,5,5a,6-hexahydrocyclopropa[f]indazol-3-yl)-1H-benzo[d]imidazol-5-yl)-2-morpholinopropanamide] | 116 | 65 |
| COc1cc2[nH]c(-c3n[nH]c4c3C[C@@H]3C[C@]3(C)C4)nc2cc1N(C)C(=O)[C@H](C)N1CCOCC1 [Example 19, (S)—N-(6-methoxy-2-((4aS,5aR)-5a-methyl-1,4,4a,5,5a,6-hexahydrocyclopropa[f]indazol-3-yl)-1H-benzo[d]imidazol-5-yl)-N-methyl-2-morpholinopropanamide] | 98 | 57 |
| C[C@@H](C(=O)N(C)c1cc2nc(-c3n[nH]c4c3C[C@@H]3C[C@]3(C)C4)[nH]c2cc1Br)N1CCOCC1 [Example 20, (S)—N-(6-bromo-2-((4aS,5aR)-5a-methyl-1,4,4a,5,5a,6-hexahydrocyclopropa[f]indazol-3-yl)-1H-benzo[d]imidazol-5-yl)-N-methyl-2-morpholinopropanamide] | 98 | 53 |
| C[C@@H](C(=O)N(C)c1cc2nc(-c3n[nH]c4c3C[C@@H]3C[C@]3(C)C4)[nH]c2cc1C#N)N1CCOCC1 [Example 21, (S)—N-(6-cyano-2-((4aS,5aR)-5a-methyl-1,4,4a,5,5a,6-hexahydrocyclopropa[f]indazol-3-yl)-1H-benzo[d]imidazol-5-yl)-N-methyl-2-morpholinopropanamide] | 91 | 98 |
| C[C@@H](C(=O)N(C)c1cc2nc(-c3n[nH]c4c3C[C@@H]3C[C@]3(C)C4)[nH]c2c(F)c1F)N1CCOCC1 [Example 24, (S)—N-(6,7-difluoro-2-((4aS,5aR)-5a-methyl-1,4,4a,5,5a,6-hexahydrocyclopropa[f]indazol-3-yl)-1H-benzo[d]imidazol-5-yl)-N-methyl-2-morpholinopropanamide] | 105 | 106 |
| CCN(C(=O)[C@H](C)N1CCOCC1)c1cc2nc(-c3n[nH]c4c3C[C@@H]3C[C@]3(C)C4)[nH]c2c(F)c1F [Example 25, (S)—N-(6,7-difluoro-2-((4aS,5aR)-5a-methyl-1,4,4a,5,5a,6-hexahydrocyclopropa[f]indazol-3-yl)-1H-benzo[d]imidazol-5-yl)-N-ethyl-2-morpholinopropanamide] | 101 | 101 |
| Cc1cc2[nH]c(-c3n[nH]c4c3C[C@@H]3C[C@]3(C)C4)nc2cc1N(C)C(=O)CN1CCO[C@H](CO)C1 [Example 26, 2-((S)-2-(hydroxymethyl)morpholino)-N-methyl-N-(6-methyl-2-((4aS,5aR)-5a-methyl-1,4,4a,5,5a,6-hexahydrocyclopropa[f]indazol-3-yl)-1H-benzo[d]imidazol-5-yl)acetamide] | 99 | 212 |
| Cc1cc2[nH]c(-c3n[nH]c4c3C[C@@H]3C[C@]3(C)C4)nc2cc1N(C)C(=O)CN1CCO[C@@H](C)C1 [Example 31, N-Methyl-N-(6-methyl-2-((4aS,5aR)-5a-methyl-1,4,4a,5,5a,6-hexahydrocyclopropa[f]indazol-3-yl)-1H-benzo[d]imidazol-5-yl)-2-((S)-2-methylmorpholino)acetamide] | 99 | 75 |
| Cc1cc2[nH]c(-c3n[nH]c4c3C[C@@H]3C[C@]3(C)C4)nc2cc1N(C)C(=O)CN1C[C@@H](C)O[C@H](C)C1 [Example 32, 2-((2R,6R)-2,6-Dimethylmorpholino)-N-methyl-N-(6-methyl-2-((4aS,5aR)-5a-methyl-1,4,4a,5,5a,6-hexahydrocyclopropa[f]indazol-3-yl)-1H-benzo[d]imidazol-5-yl)acetamide] | 99 | 83 |
| Cc1cc2[nH]c(-c3n[nH]c4c3C[C@@H]3C[C@]3(C)C4)nc2cc1N(C)C(=O)CN1CCOCC1 [Example 34, N-Methyl-N-(6-methyl-2-((4aS,5aR)-5a-methyl-1,4,4a,5,5a,6-hexahydrocyclopropa[f]indazol-3-yl)-1H-benzo[d]imidazol-5-yl)-2-morpholinoacetamide] | 98 | 103 |
| C[C@@H](C(=O)N(C)c1cc(Br)c2[nH]c(-c3n[nH]c4c3C[C@@H]3C[C@]3(C)C4)nc2c1)N1CCOCC1 [Example 37, (S)—N-(7-bromo-2-((4aS,5aR)-5a-methyl-1,4,4a,5,5a,6-hexahydrocyclopropa[f]indazol-3-yl)-1H-benzo[d]imidazol-5-yl)-N-methyl-2-morpholinopropanamide] | 96 | 130 |
